From PubChem BioAssay AID686932 (Sanford-Burnham Center for Chemical Genomics, 2013) come the findings set out here.

This test has as its target 72 kDa type IV collagenase (Homo sapiens) (UniProt P08253). The test is described as follows: human MMP-2 protease inhibitors, selectivity check – biochemical, fluorescence, counter-screen for RPN11 inhibitor project, SAR follow-up (AID 686932). Conditions: recombinant MMP-2, FRET peptide cleavage fluorescence.

Where “and” joins values, the source holds several entries; their conditions need not be identical. Equal values may be shown once. Calls of active or inactive are those of the source.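 Rule for the calls: active = IC50 against MMP-2 at or below 100 µM; inactive = the rest.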

72 kDa type IV collagenase (Homo sapiens), sequence (P08253 whole entry, looked up): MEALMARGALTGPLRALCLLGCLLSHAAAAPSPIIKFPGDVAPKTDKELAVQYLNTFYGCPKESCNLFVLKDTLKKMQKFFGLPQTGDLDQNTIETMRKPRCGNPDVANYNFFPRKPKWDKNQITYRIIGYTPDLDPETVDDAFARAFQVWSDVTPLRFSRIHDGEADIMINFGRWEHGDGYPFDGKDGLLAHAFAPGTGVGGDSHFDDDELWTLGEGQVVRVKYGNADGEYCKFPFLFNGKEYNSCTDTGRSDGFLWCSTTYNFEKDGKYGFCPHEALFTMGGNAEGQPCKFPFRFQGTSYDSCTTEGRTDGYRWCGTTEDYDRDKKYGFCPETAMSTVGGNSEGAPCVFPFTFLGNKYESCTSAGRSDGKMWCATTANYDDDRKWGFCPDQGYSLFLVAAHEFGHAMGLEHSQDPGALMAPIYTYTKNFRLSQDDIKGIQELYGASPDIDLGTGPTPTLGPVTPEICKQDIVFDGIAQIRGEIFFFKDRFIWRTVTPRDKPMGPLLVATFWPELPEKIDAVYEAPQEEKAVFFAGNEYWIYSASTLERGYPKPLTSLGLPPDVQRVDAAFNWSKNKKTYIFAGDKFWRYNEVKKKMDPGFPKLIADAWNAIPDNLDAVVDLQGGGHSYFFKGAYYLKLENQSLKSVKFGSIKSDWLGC

Take `O=C(Sc1cccc2cccnc12)c1ccccc1I`: the concentration for half-maximal inhibition (IC50) was 7.06 µM.

As to `O=C(O)c1cnc2c(SSc3cccc4cc(C(=O)O)cnc34)cccc2c1`, the IC50 was > 99 µM (inactive).

As for `O=C(Sc1cccc2cccnc12)c1ccccc1`, the IC50 is 21.8 µM.

Consider `COc1ccc(C(=O)Sc2cccc3cccnc23)cc1F`, for which the IC50 is > 99 µM (inactive).

As for `CC[C@@H](C)[C@H](NC(=O)c1cnc2c(SSc3cccc4cc(C(=O)N[C@H](C(=O)OC)[C@@H](C)CC)cnc34)cccc2c1)C(=O)OC`, the IC50 is > 99 µM (inactive).

For `COC(=O)c1cnc2c(SSc3cccc4cc(C(=O)OC)cnc34)cccc2c1`, the IC50 was 24 µM.

Regarding `CC[C@@H](C)[C@H](NC(=O)c1cnc2c(SSc3cccc4cc(C(=O)N[C@H](C(=O)O)[C@H](C)CC)cnc34)cccc2c1)C(=O)O`, the IC50 is 20.2 µM.

On to `O=C(Sc1cccc2cccnc12)c1ccc(F)c(F)c1`, for which the IC50 is > 99 µM (inactive).

`COC(=O)[C@H](C)NC(=O)c1ccnc2c(SSc3cccc4c(C(=O)N[C@@H](C)C(=O)OC)ccnc34)cccc12`: the IC50 is > 99 µM (inactive).

For the compound `O=C(Sc1cccc2cccnc12)c1ccc(C(F)(F)F)cc1`, the IC50 is > 99 µM (inactive).

With `O=C(Sc1cccc2cccnc12)c1c(Cl)cccc1Cl`, the IC50 was 8.92 µM.

As for `COC(=O)[C@H](C)N(C)C(=O)c1cnc2c(SSc3cccc4cc(C(=O)N(C)[C@@H](C)C(=O)OC)cnc34)cccc2c1`, the IC50 was > 99 µM (inactive).

Regarding `O=C(Sc1cccc2cccnc12)c1ccccc1Cl`, the IC50 is > 99 µM (inactive).

In the case of `N#Cc1cccc(C(=O)Sc2cccc3cccnc23)c1`, the IC50 was > 99 µM (inactive).

For the compound `O=C(Sc1cccc2cccnc12)c1ccc(F)cc1F`, the IC50 is 9.07 µM.

On to `CC(C)[C@H](NC(=O)c1cnc2c(SSc3cccc4cc(C(=O)N[C@H](C(=O)O)C(C)C)cnc34)cccc2c1)C(=O)O`, for which the IC50 is > 99 µM (inactive).

Turning to `O=C(Sc1cccc2cccnc12)c1ccccc1F`, the IC50 was > 99 µM (inactive).

With `O=C(Sc1cccc2cccnc12)c1cccc(C(F)(F)F)c1`, the IC50 is > 99 µM (inactive).

For the compound `C[C@@H](C(=O)O)N(C)C(=O)c1cnc2c(SSc3cccc4cc(C(=O)N(C)[C@@H](C)C(=O)O)cnc34)cccc2c1`, the IC50 is > 99 µM (inactive).

`O=C(Sc1cccc2cccnc12)c1ccccc1OC(F)(F)F`: the IC50 was > 99 µM (inactive).

As to `O=C(Sc1cccc2cccnc12)c1ccccc1[N+](=O)[O-]`, the IC50 result was “inactive”.

Take `O=C(Sc1cccc2cccnc12)C1CCCCC1`: the IC50 was 20.5 µM.

`COC(=O)[C@H](CC(C)C)NC(=O)c1cnc2c(SSc3cccc4cc(C(=O)N[C@@H](CC(C)C)C(=O)OC)cnc34)cccc2c1`: the IC50 is > 99 µM (inactive).

Consider `COC(=O)[C@H](C)NC(=O)c1cnc2c(SSc3cccc4cc(C(=O)N[C@@H](C)C(=O)OC)cnc34)cccc2c1`, for which the IC50 is > 99 µM (inactive).

For the compound `O=C(Sc1cccc2cccnc12)c1ccc(F)cc1`, the IC50 is > 99 µM (inactive).

Consider `CC(C)(C)OC(=O)CCNC(=O)c1cnc2c(SSc3cccc4cc(C(=O)NCCC(=O)OC(C)(C)C)cnc34)cccc2c1`, for which the IC50 was > 99 µM (inactive).

Take `O=C(O)[C@@H]1CCCN1C(=O)c1cnc2c(SSc3cccc4cc(C(=O)N5CCC[C@H]5C(=O)O)cnc34)cccc2c1`: the IC50 is 16.3 µM.

As to `O=C(Sc1cccc2cccnc12)c1cccc(Cl)c1`, the IC50 is > 99 µM (inactive).

`Cc1cccc(C(=O)Sc2cccc3cccnc23)c1`: the IC50 is 38.5 µM.

On to `COc1ccccc1C(=O)Sc1cccc2cccnc12`, for which the IC50 is > 99 µM (inactive).

Take `CCOc1ccccc1C(=O)Sc1cccc2cccnc12`: the concentration for half-maximal inhibition (IC50) is 17 µM and > 99 µM (inactive).

For the compound `CCCc1ccc(C(=O)Sc2cccc3cccnc23)cc1`, the IC50 is 7.85 µM.

On to `COC(=O)[C@@H]1CCCN1C(=O)c1cnc2c(SSc3cccc4cc(C(=O)N5CCC[C@H]5C(=O)OC)cnc34)cccc2c1`, for which the IC50 was > 99 µM (inactive).

As for `O=C(Sc1cccc2cccnc12)c1cccc2ccccc12`, the IC50 was 29.3 µM.

As for `COc1cccc(C(=O)Sc2cccc3cccnc23)c1`, the IC50 is > 99 µM (inactive).

As for `O=C(Sc1cccc2cccnc12)c1ccc([N+](=O)[O-])cc1`, the IC50 was > 99 µM (inactive).

In the case of `COc1ccc(C(=O)Sc2cccc3cccnc23)cc1`, the IC50 is 16.2 µM.

With `O=C(Sc1cccc2cccnc12)c1ccccc1Br`, the IC50 is > 99 µM (inactive).

Turning to `Cc1ccccc1C(=O)Sc1cccc2cccnc12`, the IC50 was > 99 µM (inactive).

On to `CC(C)Cc1ccc(C(=O)Sc2cccc3cccnc23)cc1`, for which the IC50 was > 99 µM (inactive).

Consider `COC(=O)[C@@H](NC(=O)c1cnc2c(SSc3cccc4cc(C(=O)N[C@H](C(=O)OC)C(C)C)cnc34)cccc2c1)C(C)C`, for which the IC50 was > 99 µM (inactive).

For the compound `COC(=O)C[C@H](NC(=O)c1cnc2c(SSc3cccc4cc(C(=O)N[C@@H](CC(=O)OC)C(=O)OC)cnc34)cccc2c1)C(=O)OC`, the IC50 is > 99 µM (inactive).

On to `O=C(Sc1cccc2cccnc12)c1ccc2c(c1)OCO2`, for which the IC50 is > 99 µM (inactive).

`CC(C)C[C@H](NC(=O)c1cnc2c(SSc3cccc4cc(C(=O)N[C@@H](CC(C)C)C(=O)O)cnc34)cccc2c1)C(=O)O`: the IC50 is 9.21 µM.

Regarding `COC(=O)[C@H](CO)NC(=O)c1cnc2c(SSc3cccc4cc(C(=O)N[C@@H](CO)C(=O)OC)cnc34)cccc2c1`, the IC50 was > 99 µM (inactive).

As to `N#Cc1ccc(C(=O)Sc2cccc3cccnc23)cc1`, the IC50 is 3.38 µM.

As to `Cc1ccc(C(=O)Sc2cccc3cccnc23)cc1`, the IC50 was > 99 µM (inactive).

As to `COc1ccc(C(=O)Sc2cccc3cccnc23)cc1OC`, the IC50 was > 99 µM (inactive).
